Results: the NIST ThermoML archive (doi:10.1016/j.tca.2015.06.017)

Assay: xn = mol fraction of the nth substance listed
Conditions: Liquid, Vibrating tube method

CCCCCl [1-chlorobutane] + CCCCCCC
mass density [kg/m3]
Conditions | 283.15 K | 293.15 K | 298.15 K
100 kPa, x2 = 0.0508 | 882.75 | 871.93 | 866.47
100 kPa, x2 = 0.0994 | 869.33 | 858.68 | 853.29
100 kPa, x2 = 0.2013 | 842.84 | 832.5 | 827.27
100 kPa, x2 = 0.3015 | 818.82 | 808.71 | 803.67
100 kPa, x2 = 0.4008 | 796.7 | 786.9 | 781.96
100 kPa, x2 = 0.5026 | 775.72 | 766.2 | 761.38
100 kPa, x2 = 0.6012 | 756.89 | 747.61 | 742.88
100 kPa, x2 = 0.7003 | 739.21 | 730.17 | 725.57
100 kPa, x2 = 0.7995 | 722.69 | 713.87 | 709.43
100 kPa, x2 = 0.9011 | 706.94 | 698.34 | 694
100 kPa, x2 = 0.9494 | 699.8 | 691.32 | 687.02
2000 kPa, x2 = 0.0508 | 884.62 | 873.92 | 868.56
2000 kPa, x2 = 0.0994 | 871.23 | 860.68 | 855.4
2000 kPa, x2 = 0.2013 | 844.73 | 834.49 | 829.39
2000 kPa, x2 = 0.3015 | 820.72 | 810.76 | 805.75
2000 kPa, x2 = 0.4008 | 798.63 | 788.97 | 784.08
2000 kPa, x2 = 0.5026 | 777.65 | 768.2 | 763.54
2000 kPa, x2 = 0.6012 | 758.81 | 749.57 | 745
2000 kPa, x2 = 0.7003 | 741.14 | 732.18 | 727.68
2000 kPa, x2 = 0.7995 | 724.62 | 715.87 | 711.52
2000 kPa, x2 = 0.9011 | 708.86 | 700.31 | 696.1
2000 kPa, x2 = 0.9494 | 701.72 | 693.28 | 689.1
5000 kPa, x2 = 0.0508 | 887.46 | 876.95 | 871.65
5000 kPa, x2 = 0.0994 | 874.03 | 863.68 | 858.46
5000 kPa, x2 = 0.2013 | 847.53 | 837.52 | 832.44
5000 kPa, x2 = 0.3015 | 823.49 | 813.71 | 808.8
5000 kPa, x2 = 0.4008 | 801.35 | 791.93 | 787.1
5000 kPa, x2 = 0.5026 | 780.38 | 771.16 | 766.44
5000 kPa, x2 = 0.6012 | 761.44 | 752.54 | 747.93
5000 kPa, x2 = 0.7003 | 743.76 | 735.08 | 730.59
5000 kPa, x2 = 0.7995 | 727.26 | 718.74 | 714.37
5000 kPa, x2 = 0.9011 | 711.45 | 703.17 | 698.9
5000 kPa, x2 = 0.9494 | 704.3 | 696.13 | 691.9
7000 kPa, x2 = 0.0508 | 889.28 | 878.92 | 873.68
7000 kPa, x2 = 0.0994 | 875.85 | 865.65 | 860.48
7000 kPa, x2 = 0.2013 | 849.37 | 839.47 | 834.46
7000 kPa, x2 = 0.3015 | 825.31 | 815.63 | 810.76
7000 kPa, x2 = 0.4008 | 803.16 | 793.83 | 789.09
7000 kPa, x2 = 0.5026 | 782.19 | 773.03 | 768.42
7000 kPa, x2 = 0.6012 | 763.28 | 754.35 | 749.89
7000 kPa, x2 = 0.7003 | 745.54 | 736.9 | 732.52
7000 kPa, x2 = 0.7995 | 729.04 | 720.57 | 716.31
7000 kPa, x2 = 0.9011 | 713.2 | 704.95 | 700.8
7000 kPa, x2 = 0.9494 | 706.05 | 697.9 | 693.79
10000 kPa, x2 = 0.0508 | 891.99 | 881.85 | 876.62
10000 kPa, x2 = 0.0994 | 878.55 | 868.56 | 863.41
10000 kPa, x2 = 0.2013 | 852.02 | 842.33 | 837.33
10000 kPa, x2 = 0.3015 | 827.93 | 818.52 | 813.6
10000 kPa, x2 = 0.4008 | 805.75 | 796.66 | 791.87
10000 kPa, x2 = 0.5026 | 784.72 | 775.83 | 771.16
10000 kPa, x2 = 0.6012 | 765.77 | 757.17 | 752.57
10000 kPa, x2 = 0.7003 | 748.04 | 739.62 | 735.16
10000 kPa, x2 = 0.7995 | 731.51 | 723.28 | 718.95
10000 kPa, x2 = 0.9011 | 715.65 | 707.66 | 703.38
10000 kPa, x2 = 0.9494 | 708.47 | 700.58 | 696.37
20000 kPa, x2 = 0.0508 | 900.53 | 890.77 | 885.92
20000 kPa, x2 = 0.0994 | 887.08 | 877.47 | 872.69
20000 kPa, x2 = 0.2013 | 860.48 | 851.18 | 846.51
20000 kPa, x2 = 0.3015 | 836.34 | 827.25 | 822.71
20000 kPa, x2 = 0.4008 | 814.1 | 805.35 | 800.83
20000 kPa, x2 = 0.5026 | 793.03 | 784.43 | 780.1
20000 kPa, x2 = 0.6012 | 773.97 | 765.68 | 761.37
20000 kPa, x2 = 0.7003 | 756.2 | 748.06 | 743.91
20000 kPa, x2 = 0.7995 | 739.54 | 731.66 | 727.56
20000 kPa, x2 = 0.9011 | 723.61 | 715.92 | 711.9
20000 kPa, x2 = 0.9494 | 716.4 | 708.79 | 704.84
30000 kPa, x2 = 0.0508 | 908.4 | 899 | 894.38
30000 kPa, x2 = 0.0994 | 894.89 | 885.66 | 881.09
30000 kPa, x2 = 0.2013 | 868.22 | 859.31 | 854.8
30000 kPa, x2 = 0.3015 | 843.95 | 835.33 | 830.93
30000 kPa, x2 = 0.4008 | 821.67 | 813.25 | 808.96
30000 kPa, x2 = 0.5026 | 800.5 | 792.34 | 788.14
30000 kPa, x2 = 0.6012 | 781.4 | 773.46 | 769.31
30000 kPa, x2 = 0.7003 | 763.51 | 755.75 | 751.75
30000 kPa, x2 = 0.7995 | 746.78 | 739.24 | 735.28
30000 kPa, x2 = 0.9011 | 730.75 | 723.44 | 719.55
30000 kPa, x2 = 0.9494 | 723.48 | 716.27 | 712.41
40000 kPa, x2 = 0.0508 | 915.72 | 906.7 | 902.26
40000 kPa, x2 = 0.0994 | 902.19 | 893.3 | 888.92
40000 kPa, x2 = 0.2013 | 875.41 | 866.83 | 862.54
40000 kPa, x2 = 0.3015 | 851.07 | 842.76 | 838.54
40000 kPa, x2 = 0.4008 | 828.73 | 820.58 | 816.49
40000 kPa, x2 = 0.5026 | 807.4 | 799.52 | 795.57
40000 kPa, x2 = 0.6012 | 788.26 | 780.6 | 776.69
40000 kPa, x2 = 0.7003 | 770.26 | 762.81 | 759
40000 kPa, x2 = 0.7995 | 753.48 | 746.17 | 742.45
40000 kPa, x2 = 0.9011 | 737.36 | 730.25 | 726.58
40000 kPa, x2 = 0.9494 | 730.05 | 723.03 | 719.41
50000 kPa, x2 = 0.0508 | 922.47 | 913.76 | 909.49
50000 kPa, x2 = 0.0994 | 908.9 | 900.34 | 896.12
50000 kPa, x2 = 0.2013 | 882.07 | 873.81 | 869.69
50000 kPa, x2 = 0.3015 | 857.66 | 849.63 | 845.59
50000 kPa, x2 = 0.4008 | 835.21 | 827.43 | 823.5
50000 kPa, x2 = 0.5026 | 813.85 | 806.3 | 802.4
50000 kPa, x2 = 0.6012 | 794.6 | 787.26 | 783.45
50000 kPa, x2 = 0.7003 | 776.55 | 769.39 | 765.7
50000 kPa, x2 = 0.7995 | 759.63 | 752.7 | 749.08
50000 kPa, x2 = 0.9011 | 743.44 | 736.68 | 733.13
50000 kPa, x2 = 0.9494 | 736.1 | 729.41 | 725.89
60000 kPa, x2 = 0.0508 | 928.92 | 920.42 | 916.33
60000 kPa, x2 = 0.0994 | 915.32 | 906.99 | 902.96
60000 kPa, x2 = 0.2013 | 888.42 | 880.39 | 876.46
60000 kPa, x2 = 0.3015 | 863.89 | 856.15 | 852.33
60000 kPa, x2 = 0.4008 | 841.39 | 833.88 | 830.1
60000 kPa, x2 = 0.5026 | 819.91 | 812.63 | 809.01
60000 kPa, x2 = 0.6012 | 800.58 | 793.52 | 790
60000 kPa, x2 = 0.7003 | 782.47 | 775.64 | 772.14
60000 kPa, x2 = 0.7995 | 765.51 | 758.87 | 755.42
60000 kPa, x2 = 0.9011 | 749.23 | 742.77 | 739.4
60000 kPa, x2 = 0.9494 | 741.85 | 735.46 | 732.12
65000 kPa, x2 = 0.0508 | 931.98 | 923.76 | 919.61
65000 kPa, x2 = 0.0994 | 918.36 | 910.28 | 906.21
65000 kPa, x2 = 0.2013 | 891.39 | 883.59 | 879.69
65000 kPa, x2 = 0.3015 | 866.87 | 859.28 | 855.51
65000 kPa, x2 = 0.4008 | 844.29 | 836.95 | 833.25
65000 kPa, x2 = 0.5026 | 822.81 | 815.67 | 812.1
65000 kPa, x2 = 0.6012 | 803.45 | 796.5 | 793.04
65000 kPa, x2 = 0.7003 | 785.25 | 778.5 | 775.16
65000 kPa, x2 = 0.7995 | 768.28 | 761.67 | 758.43
65000 kPa, x2 = 0.9011 | 751.95 | 745.52 | 742.37
65000 kPa, x2 = 0.9494 | 744.53 | 738.19 | 735.07
